Measured values reported in article PMC6570783, “The Novel C5aR Antagonist DF3016A Protects Neurons Against Ischemic Neuroinflammatory Injury” (Neurotoxicity Research, 2019).

How the values were obtained:
C5aR = C5aR (Homo sapiens, UniProt P21730); details: read-out: IC50, inhibition of C5a-induced human PMN migration; human PMNs, 10 nM C5a
Experimental: (§1) Migration of human, rat, and mouse PMNs was evaluated using a 48-well micro-chemotaxis chamber, as previously described (Bertini et al. [2004]). […] Fifty microliters of cell suspension (1.5 × 10^6/ml for human PMNs, 3.0 × 10^6/ml for rat and mouse PMNs) pre-incubated at 37 °C for 15 min in the presence or absence of different concentrations of DF3016A or vehicle was seeded in the upper compartment. The chamber was incubated at 37 °C in air with 5% CO2 for 45 min. At the end of incubation, filters containing migrated cells were removed, fixed, and stained with Diff-Quik, and five oil immersion fields at high magnification (×100; Zeiss microscope) were counted after sample coding.

mouse C5aR = mouse C5aR (Mus musculus, UniProt P30993); details: read-out: IC50, mouse C5aR (C5a-induced PMN migration); mouse PMNs, 10 nM mC5a
mouse C5aR, sequence (P30993 whole entry): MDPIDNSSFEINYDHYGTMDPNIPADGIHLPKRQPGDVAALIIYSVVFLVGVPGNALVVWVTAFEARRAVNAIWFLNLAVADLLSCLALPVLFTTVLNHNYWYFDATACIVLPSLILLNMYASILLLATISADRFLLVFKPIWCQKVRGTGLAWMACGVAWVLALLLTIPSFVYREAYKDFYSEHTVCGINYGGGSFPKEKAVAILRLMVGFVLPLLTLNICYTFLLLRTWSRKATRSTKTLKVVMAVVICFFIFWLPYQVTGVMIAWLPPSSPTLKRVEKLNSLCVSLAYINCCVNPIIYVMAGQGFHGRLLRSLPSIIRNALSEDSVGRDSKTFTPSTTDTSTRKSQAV
Experimental: (§2) Murine and rat PMNs were isolated from peritoneal cavities injected with 1.5 ml of 3% thioglycolate in saline to male Balb/c mice (20–25 g and 7–9 weeks of age, provided by Charles River, Calco, Italy) or with […] of 3% thioglycolate in saline to SD rat (370–450 g and 3–4 months of age provided by Charles River, UK). Four hours after injection, the animals were sacrificed by decapitation and peritoneal cavities were washed with saline. PMNs were recovered and centrifuged at 600×g for 10 min. The pellet was resuspended in Hank’s Balanced Salt Solution (HBSS); then the cells were counted using Türk’s solution and diluted at 3 × 10^6 cells/ml.
as §1

rat C5aR = rat C5aR (Rattus norvegicus, UniProt P97520); details: read-out: IC50, rat C5aR (C5a-induced PMN migration); rat PMNs, 10 nM rC5a
rat C5aR, sequence (P97520 whole entry): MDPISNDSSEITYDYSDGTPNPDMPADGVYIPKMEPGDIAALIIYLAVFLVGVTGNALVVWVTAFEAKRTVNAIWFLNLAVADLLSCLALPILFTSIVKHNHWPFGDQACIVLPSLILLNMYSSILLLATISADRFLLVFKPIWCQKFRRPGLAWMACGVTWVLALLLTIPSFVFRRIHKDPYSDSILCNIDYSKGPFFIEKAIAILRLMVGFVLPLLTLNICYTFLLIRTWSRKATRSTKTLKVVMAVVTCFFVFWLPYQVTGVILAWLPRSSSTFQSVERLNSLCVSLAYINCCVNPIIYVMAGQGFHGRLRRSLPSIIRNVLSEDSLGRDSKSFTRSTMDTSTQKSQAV
Experimental: as §2, §1

[1] = system: spontaneous cell migration; experiment: Spontaneous PMN migration; type: cell-based
Experimental: (§8) Migration of human, rat, and mouse PMNs was evaluated using a 48-well micro-chemotaxis chamber, as previously described (Bertini et al. [2004]). […] The chamber was incubated at 37 °C in air with 5% CO2 for 45 min. At the end of incubation, filters containing migrated cells were removed, fixed, and stained with Diff-Quik, and five oil immersion fields at high magnification (×100; Zeiss microscope) were counted after sample coding.

[2] = system: PMN migration induced by CXCL8; experiment: CXCL8-induced PMN migration; type: cell-based; details: up to 10 μM
Experimental: as §8

[3] = system: PMN migration induced by CXCL1; experiment: CXCL1-induced PMN migration; type: cell-based; details: up to 10 μM
Experimental: as §8

[4] = system: PMN migration induced by CCL3; experiment: CCL3-induced PMN migration; type: cell-based; details: up to 10 μM
Experimental: as §8

[5] = system: PMN migration induced by fMLP; experiment: fMLP-induced PMN migration; type: cell-based; details: up to 10 μM
Experimental: as §8

[6] = system: PMN migration induced by CXCL12; experiment: CXCL12-induced PMN migration; type: cell-based; details: up to 10 μM
Experimental: as §8

[7] = system: LPS-induced PGE2 accumulation; experiment: LPS-induced PGE2 production in peritoneal murine macrophages; type: cell-based, mouse; details: up to 10 μM, LPS 1 μg/ml, 24 h
Experimental: Cells were placed at 1 × 10^6 ml^−1 in 96-well plates and non-adherent cells removed by gentle washing 2 h later. DF3016A was then added to adherent macrophages 20 min before adding lipopolysaccharide (LPS) (1 μg ml^−1). Control cells received vehicle at the appropriate dilution. Total prostaglandin E2 (PGE2) production was determined in the supernatant 24 h after LPS stimulation. PGE2 levels were measured by Enzyme Immunoassay (EIA) Kit (sensitivity 2.5 pg per well).

[8] = system: panel of GPCRs, enzymes, ion channels, transporters, and nuclear receptors (44 targets); experiment: SafetyScreen44 Panel radioligand binding (Eurofins Cerep); details: 10 μM, triplicate
Experimental: DF3016A was tested in the SafetyScreen44 Panel performed at Eurofins Cerep SA (France) by radio ligand binding assays to assess the off-target activities towards a panel of GPCRs, enzymes, ion channels, transporters, and nuclear receptors. All selected targets are recommended by four major pharmaceutical companies (Bowes et al. [2012]). The compound was tested at a single concentration of 10 μM in triplicate.
DF3016A was dissolved in dimethyl sulfoxide (DMSO) to achieve 10 mM stock solution that was diluted with water/HBSS to a final concentration of 10 μM. Cell membrane homogenates (48 μg protein) were incubated for 60 min at 22 °C with the respective reference compound in the absence or presence of the test compound in a buffer containing 50 mM Tris-HCl (pH 7.4), 2 mM MgCl2, and 1 mM ethylene-diamine-tetra-acetic acid (EDTA). After incubation, the samples were filtered rapidly under vacuum through glass fiber filters (GF/B, Packard Instruments, Meriden, CT, USA) presoaked with 0.3% polyethyleneimine (PEI), and rinsed several times with ice-cold 50 mM Tris-HCl using a 96-sample cell harvester (Unifilter, Packard Instruments). The filters were dried, then counted for radioactivity in a scintillation counter (Topcount, Packard Instruments) using a scintillation cocktail (Microscint-O, Packard Instruments).

[9] = Rat plasma protein binding (rPPB); type: in vitro ADME
[10] = Rat brain tissue binding (rBTB); type: in vitro ADME
[11] = Rat oral pharmacokinetics; type: in vivo
[12] = system: cortical neurons exposed to OGD/R; details: 500 nM, 1 h OGD, 3 to 48 h of reperfusion
Experimental: DF3016A (500 nM) was added to the cortical neurons which were exposed to O2 and glucose deprivation with glucose-free Neurobasal in Hypoxia Chamber for Cell Culture (BioSpherix) at 5% CO2 atmosphere-[…]. O2 concentration was monitored by using a ProOx sensor controller, and the 0.03% O2 value was considered acceptable. Cells were incubated in this anaerobic chamber for 1 h and then removed from the anaerobic environment. […] Cells of control group were treated identically except that they were not exposed to OGD/R.

[13] = system: cortical neurons exposed to OGD/R; experiment: AO/ET staining of live and dead neurons after OGD/R; type: cell-based, rat; details: 500 nM, OGD/R 3 h
Experimental: DF3016A (500 nM) was added to the cortical neurons which were exposed to O2 and glucose deprivation with glucose-free Neurobasal in Hypoxia Chamber for Cell Culture (BioSpherix) at 5% CO2 atmosphere-85% N2. O2 concentration was monitored by using a ProOx sensor controller, and the 0.03% O2 value was considered acceptable. Cells were incubated in this anaerobic chamber for 1 h and then removed from the anaerobic environment. […] Cells of control group were treated identically except that they were not exposed to OGD/R.
Images have been acquired through a fluorescent microscope combined with a Digital Color Camera.

[14] = system: Ca2+ influx in OGD/R neurons; experiment: Fluo-4 NW calcium assay in OGD/R neurons; type: cell-based, rat; details: 500 nM, P < 0.001 OGD/R-DF vs OGD/R-UT
Experimental: Neuronal cells, grown on 96-well plates, were exposed to OGD/R and treated with 500 nM of DF3016A; growth media were removed, and 100 μl of the dye loading solution (F36206 Fluo-4 NW Calcium Assay Kit, Invitrogen) was added carefully to each well. Plates were incubated at 37 °C for 30 min and then at room temperature for an additional 30 min. […] Data were presented as the ratio between Ca^++ influx and neuronal viability.

C5aR gene expression = C5aR gene expression (qRT-PCR) in OGD/R neurons; type: cell-based, rat; details: 500 nM
Experimental: (§3) The total RNA, including microRNA (miRNA), from cells in cultures were extracted with Ribospin Kit (GenaAll) followed by Riboclear Plus Kit (GenaAll) to remove residual DNA according to the manufacturer’s protocols.
(§4) Total mRNA transcription (2μg/20 μl) was performed using High Capacity cDNA Reverse Transcription Kit (Applied Biosystems) and reverse transcription for MicroRNA (10 ng/15 μl) was performed using TaqMan MicroRNA Reverse Transcription Kit (Applied Biosystems).
(§5) The qPCR 20 μl/reactions for miR-181a (assay ID: hsa-miR-181a) and C5aR (assay ID: Rn02134203_s1) were conducted in triplicate using TaqMan® MicroRNA Assay Kit and TaqMan® Gene Expression Assays protocol (Applied Biosystems), respectively, following the manufacturer’s instructions. Reactions were performed using a Step One Plus Applied Biosystems thermocycler (Life Technologies) with the default protocol. Briefly, for each reaction 40 cycles of amplification with the following profile were performed: 95 °C for 10 min for the first cycle, followed by 40 cycles of 95 °C for 15 s, and 60 °C for 1 min.
(§6) Relative intensity of PCR-specific amplicons was calculated using the 2^−ΔΔCt method (Livak and Schmittgen [2001]). Beta-actin (assay ID: Rn00667869_m1) and U6 (assay ID: 001973) small nuclear RNA (snRNA) (Han et al. [2015]) were used as internal control to normalize the level of each transcript.

C5a protein level = experiment: C5a protein release (ELISA) in OGD/R neurons; type: cell-based, rat; details: 500 nM
Experimental: (§7) Quantitative measurements of cellular proteins (C5a, TNF-α, IL-1β, and IL-6) in cell culture supernatants were determined by ELISA methods using Rat IL-6, Mouse TNFα, Rat IL-1β PicoKine™ ELISA Kits (Boster Biological Technology) and Rat C5a ELISA Kit (Elabscience Biotechnology Inc.) according to the manufacturer’s instructions. All tests were performed in triplicate.

TNF-α = TNF-α release (ELISA) in OGD/R neurons; type: cell-based, rat; details: 500 nM
Experimental: as §7

IL-1β = IL-1β release (ELISA) in OGD/R neurons; type: cell-based, rat; details: 500 nM
Experimental: as §7

miR-181a = miR-181a expression (qPCR) in OGD/R neurons; type: cell-based, rat; details: 500 nM, P < 0.001 OGD/R-DF vs OGD/R-UT
Experimental: as §3, §4, §5, §6

[15] = rat, in vivo, po, 30 mg/kg
Experimental: SD rats (370–450 g and 3–4 months of age at the time of testing) were purchased from Charles River, UK. All animals were housed in groups of three per room under controlled conditions of temperature (19 to 21 °C) and humidity (50%), and maintained on a 12-h light/dark cycle (lights on at 7 and lights off at 19 including a 30-min dawn/dusk lights increasing/dimming period, respectively). Animals had free access to rat chow pellets CRM (P) and water except during the experimental procedures. All animals were weighed immediately before the test. The test drug was administered orally at 30 mg/kg using saline solution (0.9% NaCl) as vehicle. […] Cardiac blood samples, 0.6 ml, were obtained and placed in EDTA-coated tubes. The tubes were spun at 13,000 rpm for 4 min and 100 μl of supernatant taken and immediately stored at − 80 °C prior to analysis. Plasma samples were analyzed by liquid chromatography–mass spectrometry (LC-MS/MS) following extraction by protein precipitation with internal standard in acetonitrile, and levels of parent measured against an extracted calibration curve of plasma samples spiked with test compound. The whole brain was harvested then placed in a plastic tube and immediately frozen at − 80 °C until required. Brain tissue were homogenized and analyzed by LC-MS/MS following extraction by protein precipitation, and levels of parent measured against an extracted calibration curve of brain homogenate samples spiked with the test compound. Total exposure levels of the test compound in brain and plasma at 2 h postdose were determined.

[16] = system: primary rat cortical neurons; experiment: Neuronal viability (MTS), toxicity of DF3016A
Experimental: Neuronal cultures were prepared from cortices of 17–18-day-old Sprague-Dawley rat fetuses. Two pregnant rats, provided from Envigo RMS S.r.l. (Z.I. Azzida, 57–33,049 S. Pietro al Natisone, Udine Italy), were euthanized by exposition to a gradually rising concentration of CO2 and then decapitated. Rat brains were isolated using standard procedures, and after the elimination of meninges, the cortical tissues were dissociated by trituration and digestion with 20 U/ml papain (Invitrogen, Karlsruhe, Germany) for 30 min at 37 °C. Approximately 1 × 10^6 cells in 1 ml DMEM/F12 medium containing 0.2 mM Glutamax, 1% penicillin/streptomycin (Pen/Strep), 5% fetal bovine serum, and 5% horse serum were seeded into poly-D-lysine pretreated plates. […] Neurons were maintained in a humidified atmosphere (5% CO2/95% air) at 37 °C and used for experiments after 8–10 days in vitro.
DF3016A was dissolved in DMSO. The final concentration of DMSO in the medium was below 0.1%. […]
Quantifications of neuronal viability were assessed by MTS method using Cell Titer One Solution Cell Proliferation Assay (Promega Corporation Madison, WI, USA) based on 3-(4,5-dimethylthiazol-2-yl)-5-(3-carboxymethoxyphenil)-2-(4-sulfophenyl)-2H-tetrazolium (MTS) (dilution 1:10). Viable cells with active metabolism convert MTT into formazan, detected by absorbance measurements at 490 nm in a BioTeek Elx800 microplate reader.

C5aR, sequence (P21730 whole entry): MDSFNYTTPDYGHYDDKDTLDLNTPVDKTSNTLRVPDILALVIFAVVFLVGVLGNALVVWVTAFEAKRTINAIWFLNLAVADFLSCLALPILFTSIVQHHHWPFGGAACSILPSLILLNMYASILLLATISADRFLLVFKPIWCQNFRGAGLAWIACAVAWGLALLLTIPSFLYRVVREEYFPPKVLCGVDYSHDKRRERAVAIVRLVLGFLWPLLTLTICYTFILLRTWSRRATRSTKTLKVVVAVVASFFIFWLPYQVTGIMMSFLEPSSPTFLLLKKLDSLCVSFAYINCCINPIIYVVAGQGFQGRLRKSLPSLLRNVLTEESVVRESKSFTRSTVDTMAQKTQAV

In the case of `CC(c1ccc(Nc2nc(C(F)(F)F)cs2)cc1)c1nnn[nH]1` (stereo not shown) [DF3016A], the IC50 (C5aR) is reported as 50 nM, the IC50 (mouse C5aR) is reported as 37 nM and the IC50 (rat C5aR) is reported as 45 nM. The “Inhibition of spontaneous cell migration per se” value [1] was “did not inhibit”, the “Effect on PMN migration induced by CXCL8” value [2] was “no effect” and the “Effect on PMN migration induced by CXCL1” value [3] was “no effect”. For the same compound, the “Effect on PMN migration induced by CCL3” value [4] was “no effect”, the “Effect on PMN migration induced by fMLP” value [5] was “no effect” and the “Effect on PMN migration induced by CXCL12” value [6] was “no effect”. The “Effect on LPS-induced PGE2 accumulation” value [7] was “no effect”, the “Inhibition of the assayed receptors (off-target activities, 44 targets)” value [8] was “did not show any inhibition” and the “rPPB Fu (free plasma fraction)” value [9] was 0.7%. The “rBTB Fu (free brain fraction)” value [10] was 7.7%, the “Oral t1/2” value [11] was 6.1 h and the Rat bioavailability [11] was 69%. The “Effect on OGD/R-induced cell death (MTS)” value [12] was “significantly attenuated OGD/R-induced cell death”, the “Neuronal death by AO/ET staining” value [13] was “close to that of control” and the “Ca2+ influx in OGD/R neurons” value [14] was “significant reduction”. For the same compound, the “C5aR gene expression after OGD/R” value (C5aR gene expression) was “reverted C5aR gene expression to the control levels”, the “C5a protein level after OGD/R” value (C5a protein level) was “restored C5a protein level to not significant values compared to control” and the “TNF-α release after OGD/R” value (TNF-α) was “restoration of control conditions”. For the same compound, the “IL-1β release after OGD/R” value (IL-1β) was “restoration of control conditions”, the “miR-181a over-expression after OGD/R” value (miR-181a) was “completely attenuated” and the “Plasma Cmax” value [15] was 104,683 ± 8867 ng/mL. The “Kp (brain to plasma ratio)” value ([15]; 2 h) was 0.04, the “Kpuu (unbound brain to plasma ratio)” value ([15]; 2 h) was 0.44 and the “Mortality compared to the control” value ([16]; 10 nM to 5 μM, 24 h, MTS) was “no significant mortality”. The “Viability changes on longer treatment” value ([16]; 500 nM, 24, 48, and 72 h) was “without significant viability changes”.
